Results reported in patent US20240174639A1, “PYRIDINE DERIVATIVES USEFUL AS HCN2 MODULATORS” (King's College London, priority 2021, published 2024).
Counter-ions that a name gives are not always drawn.

Assays:
[1] = molecular target: T1, HCN4 (Homo sapiens, UniProt Q9Y3Q4); assay: HCN4 assay using PatchXpress 7000A (Example 50A); type: cell-based; conditions: PatchXpress protocol (PX)
T1 sequence (Q9Y3Q4 1-1203): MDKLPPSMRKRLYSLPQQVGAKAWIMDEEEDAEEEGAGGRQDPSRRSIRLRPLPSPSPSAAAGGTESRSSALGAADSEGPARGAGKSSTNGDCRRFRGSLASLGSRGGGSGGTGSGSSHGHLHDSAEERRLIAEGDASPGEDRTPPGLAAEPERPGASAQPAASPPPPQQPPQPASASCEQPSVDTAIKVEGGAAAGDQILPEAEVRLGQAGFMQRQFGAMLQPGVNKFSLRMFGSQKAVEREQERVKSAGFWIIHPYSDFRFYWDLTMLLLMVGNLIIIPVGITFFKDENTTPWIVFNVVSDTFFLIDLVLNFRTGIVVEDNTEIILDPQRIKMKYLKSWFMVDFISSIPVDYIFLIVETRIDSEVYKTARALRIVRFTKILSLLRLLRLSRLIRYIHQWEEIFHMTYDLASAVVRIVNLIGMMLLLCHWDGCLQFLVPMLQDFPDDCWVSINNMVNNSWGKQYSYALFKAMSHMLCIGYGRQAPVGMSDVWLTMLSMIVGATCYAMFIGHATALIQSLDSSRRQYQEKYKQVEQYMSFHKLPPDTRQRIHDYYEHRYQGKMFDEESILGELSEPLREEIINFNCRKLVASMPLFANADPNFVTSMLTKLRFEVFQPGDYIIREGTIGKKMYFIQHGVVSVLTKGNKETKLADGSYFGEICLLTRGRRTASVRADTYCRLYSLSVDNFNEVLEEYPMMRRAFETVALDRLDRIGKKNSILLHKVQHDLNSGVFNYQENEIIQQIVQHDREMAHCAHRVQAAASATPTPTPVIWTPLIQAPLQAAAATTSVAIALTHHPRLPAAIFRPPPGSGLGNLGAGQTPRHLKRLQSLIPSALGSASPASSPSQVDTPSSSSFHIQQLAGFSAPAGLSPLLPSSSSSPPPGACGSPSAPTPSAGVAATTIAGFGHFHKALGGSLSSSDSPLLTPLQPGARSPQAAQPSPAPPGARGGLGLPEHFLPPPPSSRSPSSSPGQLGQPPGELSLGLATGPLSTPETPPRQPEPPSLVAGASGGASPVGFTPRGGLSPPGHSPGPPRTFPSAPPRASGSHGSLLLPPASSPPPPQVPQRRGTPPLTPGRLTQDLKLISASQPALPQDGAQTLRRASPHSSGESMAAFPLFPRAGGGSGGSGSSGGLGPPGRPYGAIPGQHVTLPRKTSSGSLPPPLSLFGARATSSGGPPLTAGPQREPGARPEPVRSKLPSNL
Description: (§1) Solutions for recording HON currents were:
For HCN4, the pulse protocol involved stepping from a holding potential of −30 mV to −130 mV (see FIG. 1B) for 4 seconds to evoke the current.
(§2) The peak inward current measured at the end of the pulse to −110 mV (HCN1 and HCN2) or −130 mV (HCN4) was measured and any leak current subtracted to calculate the HCN current. The HCN current amplitude was measured after each control or compound addition and normalized to the control amplitude (Control A).
(§3) All experiments were performed at room temperature (approximately 22° C.).
(§4) Each test compound concentration was applied to the cell for seven (7) minutes, at which point the next cumulative concentration was applied. 3 mM CsCl was applied to each cell for 2 minutes at the end of each experiment (Control B) to determine 100% inhibition level of the HCN current.

[2] = molecular target: T2, HCN2 (Homo sapiens, UniProt Q9UL51); assay: HCN2 assay using PatchXpress 7000A (Example 50A); type: cell-based; conditions: for IC50: PatchXpress protocol (PX); for selective for HCN2 over HCN4: PatchXpress protocol (PX) assay
T2 sequence (Q9UL51 1-889): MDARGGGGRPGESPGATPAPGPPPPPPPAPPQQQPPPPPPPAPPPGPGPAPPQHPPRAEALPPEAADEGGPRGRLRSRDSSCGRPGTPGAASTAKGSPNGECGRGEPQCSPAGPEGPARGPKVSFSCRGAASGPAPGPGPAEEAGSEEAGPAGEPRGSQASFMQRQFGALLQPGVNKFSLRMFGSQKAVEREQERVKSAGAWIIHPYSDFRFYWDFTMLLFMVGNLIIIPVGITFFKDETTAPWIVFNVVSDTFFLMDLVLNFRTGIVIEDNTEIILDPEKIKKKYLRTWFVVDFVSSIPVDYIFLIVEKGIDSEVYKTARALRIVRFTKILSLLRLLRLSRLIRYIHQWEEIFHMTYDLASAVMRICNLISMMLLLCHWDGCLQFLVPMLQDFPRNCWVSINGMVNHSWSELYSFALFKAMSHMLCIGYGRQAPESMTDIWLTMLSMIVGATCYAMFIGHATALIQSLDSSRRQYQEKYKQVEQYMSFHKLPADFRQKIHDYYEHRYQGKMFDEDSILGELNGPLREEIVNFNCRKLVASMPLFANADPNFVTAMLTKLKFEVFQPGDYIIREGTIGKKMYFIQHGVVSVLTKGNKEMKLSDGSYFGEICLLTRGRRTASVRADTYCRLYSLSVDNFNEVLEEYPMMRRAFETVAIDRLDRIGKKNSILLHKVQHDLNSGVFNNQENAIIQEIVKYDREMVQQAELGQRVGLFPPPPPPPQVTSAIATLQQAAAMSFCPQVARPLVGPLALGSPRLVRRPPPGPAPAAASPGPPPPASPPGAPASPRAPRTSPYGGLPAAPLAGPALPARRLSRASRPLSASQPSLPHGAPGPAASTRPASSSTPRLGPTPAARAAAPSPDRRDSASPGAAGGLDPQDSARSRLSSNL
From the text: as §1
For HCN1 and HCN2, the pulse protocol involved stepping from a holding potential of −30 mV to −110 mV (see FIG. 1A) for 2 seconds to evoke the current. The membrane voltage was then stepped back to −30 mV for a further 8 seconds. This sequence was evoked repeatedly every 10 seconds throughout the experiment, starting prior to drug (Control A) and during cumulative additions of 5 increasing compound concentrations, then finally a 100% inhibiting concentration of cesium chloride (CsCl, 3 mM).
as §2, §3, §4

[3] = system: Black6 strain mice; assay: Bradycardia testing, heart rate by MouseOx pulse oximeter (Example 58); type: in vivo; conditions: awake Black6 mice
Description: Test compounds were administered i.p. to awake, behaving, Black6 strain mice together with a vehicle only control arm. Heart rate in the mice were measured with MouseOx pulse oximeter.
The compound of Example 2 was administered to awake, behaving, Black6 strain mice at doses ranging from 0.05 mg/kg to 2 mg/kg. The effect of the compound of Example 2 on heart beat is shown in FIG. 11 compared to ivabradine administered at a dose of 5 mg/kg i.p, and a vehicle control.

[4] = system: WT Black6 strain mice; assay: Mouse neuropathic pain model (partial sciatic nerve ligation), von Frey filament (Example 57); type: in vivo; conditions: day 5 after PSNL
Description: The compounds of Example 2 and Example 4 were tested in a mouse neuropathic pain model using WT Black6 strain mice. The model used was analogous to the model described in Seltzer Z, Dubner R, & Shir Y (1990), A novel behavioural model of neuropathic pain disorders produced in rats by partial sciatic nerve injury, Pain 43: 205-218). […] Sci Transl Med 9: eaam6072.
The test compounds were administered i.p. to the mice on day 5 following partial sciatic nerve ligation surgery, average data from 3-4 mice. The mechanical pain threshold was measured by manual von Frey filament applied to hind paw on the operated side, using the “up-down” method. The test compounds were compared to ivabradine at 5 mg/kg i.p. and i.p. injection of vehicle.

[5] = molecular target: T1, HCN4; assay: HCN4 assay using the Sophion Qube (Example 50B); type: cell-based; conditions: Sophion Qube protocol (SQ)
Description: Solutions for recording HCN currents were: [table] For HCN4, the cells were held at −30 mV and then stepped to −130 mV for 4 seconds before stepping back to −30 mV, this represents 1 experimental sweep. This voltage protocol was applied every 20 seconds for the duration of the experiment. Both the vehicle (0.3% DMSO) and full block (3 mM CsCl) addition periods were applied for 10 experimental sweeps each. The compound addition period was applied for 30 sweeps. The currents evoked by the step to −110 mV (HCN1 and HCN2) or −130 mV (HCN4) were measured for the analysis of the percentage inhibition by test compounds. The current amplitudes were measured by subtracting metric A from metric B (see FIG. 2) with inhibition calculated by normalising to the vehicle addition (0.3% DMSO) and full inhibition by 3 mM CsCl in the same well. […] In total, compound was applied to the well for 600 seconds.

[6] = molecular target: T2, HCN2; assay: HCN2 assay using the Sophion Qube (Example 50B); type: cell-based; conditions: Sophion Qube protocol (SQ)
Description: Solutions for recording HCN currents were:
For HCN1 and HCN2 the cells were held at −30 mV and then stepped to −110 mV for 2 seconds before stepping back to −30 mV, this represents 1 experimental sweep. This voltage protocol was applied every 20 seconds for the duration of the experiment. Both the vehicle (0.3% DMSO) and full block (3 mM CsCl) addition periods were applied for 10 experimental sweeps each. The compound addition period was applied for 30 sweeps.
The currents evoked by the step to −110 mV (HCN1 and HCN2) or −130 mV (HCN4) were measured for the analysis of the percentage inhibition by test compounds. The current amplitudes were measured by subtracting metric A from metric B (see FIG. 2) with inhibition calculated by normalising to the vehicle addition (0.3% DMSO) and full inhibition by 3 mM CsCl in the same well.
In total, compound was applied to the well for 600 seconds.

N[C@@H](Cc1ccccn1)c1ncccc1-n1ncc2ccccc21 [Example 4, (S)-1-[3-(1H-indazole-1-yl)pyridine-2-yl]-2-(pyridine-2-yl)ethan-1-amine hydrochloride]
IC50 [1]: > 30 µM | IC50 [2]: 1.6 µM | selective for HCN2 over HCN4 [2]: more than 19 times | bradycardia (heart rate) ([3]; 2 mg/kg i.p.): minimal bradycardia | mechanical analgesia (von Frey pain threshold) ([4]; 2 mg/kg i.p.): maximal analgesia | mechanical analgesia (von Frey pain threshold) ([4]; 10 mg/kg i.p.): maximal analgesia

N#Cc1ccc(F)c(C[C@H](N)c2ncccc2-n2ncc3cc(Cl)ccc32)n1 [Example 45, (S)-6-{2-Amino-2-[3-(5-chloro-1H-indazol-1-yl)pyridine-2-yl-ethyl}-5-fluoropyr-idine-2-carbonitrile hydrochloride]
IC50 [5]: 3.4 µM | IC50 [6]: 0.6 µM

Cc1ccc(C#N)nc1C[C@H](N)c1ncccc1-n1ncc2cc(Cl)ccc21 [Example 35, (S)-6-{2-Amino-2-[3-(5-chloro-1H-indazol-1-yl)pyridine-2-yl]-ethyl}-5-methylpyr-idine-2-carbonitrile]
IC50 [5]: 4.3 µM | IC50 [6]: 0.46 µM

CS(=O)(=O)c1ccc(F)c(C[C@H](N)c2ncccc2-n2ncc3cc(Cl)ccc32)n1 [Example 41, (S)-1-[3-(5-Chloro-1H-indazole-1-yl)-pyridine-2-yl]-2-(3-fluoro-6-methylsulfon-ylpyridine-2-yl)ethan-1-amine hydrochloride]
IC50 [5]: > 30 µM | IC50 [6]: 3.9 µM

Cc1ccc(C#N)nc1C[C@H](N)c1ncccc1-n1ncc2cc(F)ccc21 [Example 47]
IC50 [5]: 10 µM | IC50 [6]: 0.63 µM

N#Cc1ccc(F)c(C[C@H](N)c2ncccc2-n2ncc3cc(F)ccc32)n1 [Example 38, (S)-6-{2-Amino-2-[3-(5-fluoro-1H-indazol-1-yl)pyridine-2-yl]ethyl}-5-fluoropyridine-2-carbonitrile]
IC50 [5]: > 30 µM | IC50 [6]: 0.79 µM

CS(=O)(=O)c1ccc(F)c(C[C@H](N)c2ncccc2-n2ncc3cc(Br)ccc32)n1 [Example 48, (S)-1-[3-(5-Bromo-1H-indazole-1-yl)pyridine-2-yl]-2-(3-fluoro-6-methylsulfonylpyr-idine-2-yl)ethan-1-amine hydrochloride]
IC50 [5]: 11.1 µM | IC50 [6]: 2.1 µM

Cc1ccc(C#N)nc1C[C@H](N)c1ncccc1-n1ncc2ccccc21 [Example 2, (S)-6-{2-[3-(1H-indazol-1-yl)pyridine-2-yl]-2-aminoethyl}-5-methylpyridin-2-carbonitrile hydrochloride]
IC50 [1]: 0.5 µM | IC50 [2]: 0.03 µM | selective for HCN2 over HCN4 [2]: 21 times | bradycardia (heart rate) ([3]; 0.2 mg/kg i.p.): minimal bradycardia | mechanical analgesia (von Frey pain threshold) ([4]; 0.2 mg/kg i.p.): full analgesia

Cc1ccc2c(cnn2-c2cccnc2[C@@H](N)Cc2nc(C#N)ccc2F)c1 [Example 39, (S)-6-{2-Amino-2-[3-(5-methyl-1H-indazol-1-yl)pyridine-2-yl]-ethyl}-5-fluoropyr-idine-2-carbonitrile hydrochloride]
IC50 [5]: 3.7 µM | IC50 [6]: 0.31 µM
